This note sets out measurements from US20260273072A1, “NOVEL PLK1 DEGRADATION INDUCING COMPOUND” (UPPTHERA, INC., priority 2023, published 2026).

Bounds are passed on as bounds.

Common to all, as to assay type: cell-based
One assay concerns NCI-H69 cell line. As to the kind of experiment: Cell viability assay for NCI-H69 cell line (EZ-Cytox). The following applies: Homo sapiens, NCI-H69, 120 h; H69 cells, 5 days, 3000 nM to 0.46 nM. The procedure, abridged:
(§1)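 IC50 values are binned (A: <30 nM, B: <50 nM, C: <100 nM, D: <200 nM, E: <400 nM) from EZ-Cytox read-outs. Cells were exposed to compound for 5 days, then shaken 3 min and absorbance taken at […].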

The test system of a further assay is NCI-H526 cell line. The assay can be described thus: Cell viability assay for NCI-H526 cell line (EZ-Cytox). The following applies: Homo sapiens, NCI-H526, 120 h; H526 cells, 5 days, 3000 nM to 0.46 nM. The procedure, abridged:
as §1

The test system of the next assay is MRC-5 cell line. As to the kind of experiment: Cell viability assay for MRC-5 cell line (EZ-Cytox). The note with it: Homo sapiens, MRC5, 120 h; MRC-5 normal cell line, 5 days, 10000 nM to 1.52 nM; read-out: Activity: IC50 value, cell viability, MRC-5 cell line (Exemplary Compounds). On the procedure: 4. Cell Viability Assay for MRC-5 Cell Line
(1) Culture of MRC-5 Cell Line
The MRC-5 cell line was purchased from KCLB. Passage of cultured cells was maintained within P15.
(2) Treatment of Compounds of the Present Invention
Then, it was cultured in 37° C. CO2 incubator (Thermo Fisher Scientific) for 5 days.
(3) Cytotoxicity Experiment
CO2 incubator for 4 hours.

The target of another assay is T1, PLK1 (Homo sapiens, UniProt P53350).
T1 construct: endogenous in cells; host or cells: HeLa LgBit (Plk1-HiBit KI): HeLa stably expressing LgBit, with a CRISPR/Cas9 knock-in of HiBit at the endogenous PLK1 locus
The assay can be described thus: Luciferase assay for PLK1 in HeLa LgBit (Plk1-HiBit KI) cell line. The following applies: 300 nM compound, luminescence after 9 hours. In a few lines: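 Compounds (300 nM) were added with Endurazine to thymidine-synchronised cells (2 mM, 24 h block, then release and 18 h culture), and luminescence at 470-480 nm was followed live. Cells: HeLa stably expressing LgBit, HiBit knocked into native PLK1 C-terminus. Value: luminescence ratio versus DMSO control.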

T1 sequence (P53350 whole entry): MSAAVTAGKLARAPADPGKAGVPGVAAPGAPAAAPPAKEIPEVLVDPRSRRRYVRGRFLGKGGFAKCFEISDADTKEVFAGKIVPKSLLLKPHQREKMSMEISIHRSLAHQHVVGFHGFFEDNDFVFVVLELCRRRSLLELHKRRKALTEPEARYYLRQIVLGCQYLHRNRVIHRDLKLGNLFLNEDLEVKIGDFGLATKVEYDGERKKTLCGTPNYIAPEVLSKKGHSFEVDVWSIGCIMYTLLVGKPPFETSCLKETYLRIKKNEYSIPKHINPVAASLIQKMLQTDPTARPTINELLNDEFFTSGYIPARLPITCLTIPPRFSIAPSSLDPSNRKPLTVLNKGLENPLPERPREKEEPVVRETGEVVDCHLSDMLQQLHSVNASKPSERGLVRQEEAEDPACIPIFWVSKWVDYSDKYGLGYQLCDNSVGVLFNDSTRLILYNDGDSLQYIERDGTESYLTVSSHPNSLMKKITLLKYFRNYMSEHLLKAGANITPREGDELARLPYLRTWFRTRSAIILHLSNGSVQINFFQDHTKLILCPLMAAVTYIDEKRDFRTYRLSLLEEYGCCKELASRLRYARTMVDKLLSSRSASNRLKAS

On to `COc1cc(C(=O)NN2CCC(CCN3CCN(c4ccc(N(C)C5CCC(=O)NC5=O)cc4F)CC3)CC2)ccc1Nc1ncc2c(n1)N(C(C)C)CC(F)(F)C(=O)N2C` (stereo not shown) [Compound 38, 4-((7,7-difluoro-9-isopropyl-5-methyl-6-oxo-6,7,8,9-tetrahydro-5H-pyrimido[4,5-b][1,4]diazepin-2-yl)amino)-N-(4-(2-(4-(4-((2,6-dioxopiperidin-3-yl)(methyl)amino)-2-fluorophenyl)piperazin-1-yl)ethyl)piperidin-1-yl)-3-methoxybenzamide], for which the figures for the concentration for half-maximal inhibition (IC50) in the assay on NCI-H69 cell line, with NCI-H526 cell line and in the assay on MRC-5 cell line were below 30 nM, below 30 nM and above 10000 nM, respectively. For the same molecule, the “Activity: ratio of the luminescence value of compound treatment group to DMSO treatment group” value (from here on “Activity: ratio”) on PLK1 is recorded as “+++ (+++: <0.3)”.

Consider `COc1cc(C(=O)NN2CCC(CCN3CCN(c4cc(F)c(NC5CCC(=O)NC5=O)cc4F)CC3)CC2)ccc1Nc1ncc2c(n1)N(C(C)C)CC(F)(F)C(=O)N2C` (stereo not shown) [Compound 58, 4-((7,7-difluoro-9-isopropyl-5-methyl-6-oxo-6,7,8,9-tetrahydro-5H-pyrimido[4,5-b][1,4]diazepin-2-yl)amino)-N-(4-(2-(4-(4-((2,6-dioxopiperidin-3-yl)amino)-2,5-difluorophenyl)piperazin-1-yl)ethyl)piperidin-1-yl)-3-methoxybenzamide], for which the half-inhibitory concentration (IC50) (in general, the concentration that gives 50% inhibition) in the assay on NCI-H69 cell line is below 30 nM; in the assay with NCI-H526 cell line, below 30 nM; with MRC-5 cell line, above 10000 nM. In addition, at PLK1, the “Activity: ratio” value was “+++ (+++: <0.3)”.

On to `COc1cc(C(=O)NN2CCC(CCN3CCN(c4cc(OC)c(NC5CCC(=O)NC5=O)cc4F)CC3)CC2)ncc1Nc1ncc2c(n1)N(C(C)C)CC(F)(F)C(=O)N2C` (stereo not shown) [Compound 46, 5-((7,7-difluoro-9-isopropyl-5-methyl-6-oxo-8H-pyrimido[4,5-b][1,4]diazepin-2-yl)amino)-N-(4-(2-(4-(4-((2,6-dioxo-3-piperidyl)amino)-2-fluoro-5-methoxy-phenyl)piperazin-1-yl)ethyl)-1-piperidyl)-4-methoxy-pyridine-2-carboxamide], for which the IC50 in the assay with NCI-H69 cell line is below 100 nM; with NCI-H526 cell line it was below 50 nM; with MRC-5 cell line, above 10000 nM. At PLK1, the “Activity: ratio” value was “++ (++: <0.5)”.

As for `COc1cc(C(=O)NN2CCC(CCN3CCN(c4ccc(NC5CCC(=O)NC5=O)c(OC)c4F)CC3)CC2)ccc1Nc1ncc2c(n1)N(C1CCCC1)CC(F)(F)C(=O)N2C` (stereo not shown) [Compound 54, 4-((9-cyclopentyl-7,7-difluoro-5-methyl-6-oxo-6,7,8,9-tetrahydro-5H-pyrimido[4,5-b][1,4]diazepin-2-yl)amino)-N-(4-(2-(4-(4-((2,6-dioxopiperidin-3-yl)amino)-2-fluoro-3-methoxyphenyl)piperazin-1-yl)ethyl)piperidin-1-yl)-3-methoxybenzamide], the IC50 in the assay on NCI-H69 cell line was below 30 nM; in the assay with NCI-H526 cell line, below 30 nM; in the assay with MRC-5 cell line, above 10000 nM. Also, at PLK1, the “Activity: ratio” value is given as “+++ (+++: <0.3)”.

Turning to `CCN1CC(F)(F)C(=O)N(C)c2cnc(Nc3ccc(C(=O)NC4CCC(N(C)CC5CCN(c6ccc(NC7CCC(=O)NC7=O)cc6F)CC5)CC4)cc3OC)nc21` (stereo not shown) [Compound 27, N((1r,4r)-4-(((1-(4-((2,6-dioxopiperidin-3-yl)amino)-2-fluorophenyl)piperidin-4-yl)methyl)(methyl)amino)cyclohexyl)-4-((9-ethyl-7,7-difluoro-5-methyl-6-oxo-6,7,8,9-tetrahydro-5H-pyrimido[4,5-b][1,4]diazepin-2-yl)amino)-3-methoxybenzamide], the figures for the IC50 in the assay on NCI-H69 cell line, in the assay with NCI-H526 cell line and with MRC-5 cell line were below 30 nM, below 30 nM and above 10000 nM, respectively. Moreover, the “Activity: ratio” value on PLK1 was “+++ (+++: <0.3)”.

With `COc1cc(C(=O)N[C@H]2CC[C@H](N(C)CC3CCN(c4cccc(N5CCC(=O)NC5=O)c4)CC3)CC2)ccc1Nc1ncc2c(n1)N(C1CCCC1)CC(F)(F)C(=O)N2C` [Compound 8, 4-((9-cyclopentyl-7,7-difluoro-5-methyl-6-oxo-6,7,8,9-tetrahydro-5H-pyrimido[4,5-b][1,4]diazepin-2-yl)amino)-N-((1r,4r)-4-(((1-(3-(2,4-dioxotetrahydropyrimidin-1 (2H)-yl)phenyl)piperidin-4-yl)methyl)(methyl)amino)cyclohexyl)-3-methoxybenzamide], the IC50 was below 30 nM in the assay with NCI-H69 cell line, below 30 nM in the assay on NCI-H526 cell line and above 10000 nM in the assay on MRC-5 cell line. For the same molecule, on PLK1, the “Activity: ratio” value was “++ (++: <0.5)”.

For `COc1cc(C(=O)NN2CCC(CCN3CCN(c4cc(C)c(NC5CCC(=O)NC5=O)cc4F)CC3)CC2)ccc1Nc1ncc2c(n1)N(C(C)C)CC(F)(F)C(=O)N2C` (stereo not shown) [Compound 75, 4-((7,7-difluoro-9-isopropyl-5-methyl-6-oxo-6,7,8,9-tetrahydro-5H-pyrimido[4,5-b][1,4]diazepin-2-yl)amino)-N-(4-(2-(4-(4-((2,6-dioxopiperidin-3-yl)amino)-2-fluoro-5-methylphenyl)piperazin-1-yl)ethyl)piperidin-1-yl)-3-methoxybenzamide], the results for the concentration for half-maximal inhibition (IC50) with NCI-H69 cell line, with NCI-H526 cell line and in the assay on MRC-5 cell line were below 30 nM, below 30 nM and above 10000 nM, respectively. Besides, the “Activity: ratio” value at PLK1 is given as “+++ (+++: <0.3)”.

As to `COc1cc(C(=O)NN2CCC(CCN3CCN(c4cc(OC)c(NC5CCC(=O)NC5=O)cc4F)CC3)CC2)c(F)cc1Nc1ncc2c(n1)N(C1CCCC1)CC(F)(F)C(=O)N2C` (stereo not shown) [Compound 42, 4-((9-cyclopentyl-7,7-difluoro-5-methyl-6-oxo-6,7,8,9-tetrahydro-5H-pyrimido[4,5-b][1,4]diazepin-2-yl)amino)-N-(4-(2-(4-(4-((2,6-dioxopiperidin-3-yl)amino)-2-fluoro-5-methoxyphenyl)piperazin-1-yl)ethyl)piperidin-1-yl)-2-fluoro-5-methoxybenz amide], the IC50 with NCI-H69 cell line is below 50 nM; in the assay on NCI-H526 cell line, below 30 nM; with MRC-5 cell line, above 10000 nM. At PLK1, the “Activity: ratio” value is given as “++ (++: <0.5)”.

For the molecule `COc1cc(C(=O)NC2CCC(N(C)CC3CCN(c4ccc(NC5CCC(=O)NC5=O)cc4F)CC3)CC2)ccc1Nc1ncc2c(n1)N(C(C)C)CC(F)(F)C(=O)N2C` (stereo not shown) [Compound 26, 4-((7,7-difluoro-9-isopropyl-5-methyl-6-oxo-6,7,8,9-tetrahydro-5H-pyrimido[4,5-b][1,4]diazepin-2-yl)amino)-N-((1r,4r)-4-(((1-(4-((2,6-dioxopiperidin-3-yl)amino)-2-fluorophenyl)piperidin-4-yl)methyl)(methyl)amino)cyclohexyl)-3-methoxybenzamide], the IC50 with NCI-H69 cell line is below 30 nM; with NCI-H526 cell line, below 30 nM; in the assay with MRC-5 cell line it was above 10000 nM. For the same molecule, at PLK1, the “Activity: ratio” value is recorded as “++ (++: <0.5)”.

As to `COc1cc(C(=O)NC2CC3(CCN(CC4CCN(c5ccc(C6CCC(=O)NC6=O)nc5C)CC4)CC3)C2)ccc1Nc1ncc2c(n1)N(C1CCCC1)CC(F)(F)C(=O)N2C` (stereo not shown) [Compound 18, 4-((9-cyclopentyl-7,7-difluoro-5-methyl-6-oxo-6,7,8,9-tetrahydro-5H-pyrimido[4,5-b][1,4]diazepin-2-yl)amino)-N-(7-((1-(6-(2,6-dioxopiperidin-3-yl)-2-methylpyridin-3-yl)piperidin-4-yl)methyl)-7-azaspiro[3.5]nonan-2-yl)-3-methoxybenzamide], the IC50 is below 30 nM in the assay on NCI-H69 cell line, below 30 nM in the assay on NCI-H526 cell line and above 10000 nM in the assay on MRC-5 cell line. In addition, the “Activity: ratio” value at PLK1 is recorded as “++ (++: <0.5)”.
